Tests used:
[1] = biological target: T1, c-KIT D816V kinase (Homo sapiens, UniProt P10721, D816V); test: c-KIT D816V kinase Assay; format: biochemical; settings: enzymatic assay, ATP 200 uM
T1 construct: residues T544-V976 with N-terminal GST fusion; purchased deCODE Biostructures
How it was run: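 Coupled assay in which NADH oxidation was tracked as decreasing absorbance at 340 nm, continuously for 5 hours at 30 °C after adding serially diluted compound. Enzyme: cKit residues T544-V976 with N-terminal tag, GST fusion and TEV cleavage site.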

[2] = biological target: T2, c-KIT T670I kinase (Homo sapiens, UniProt P10721, T670I); test: c-KIT T670I kinase assay; format: biochemical; settings: enzymatic assay
T2 construct: The construct contains residues T544-V976 of cKit; GST (N); TEV cleavage site (internal); purchased deCODE Biostructures
How it was run: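 Enzyme: GST-fused, N-terminally tagged cKit bearing T670I, with TEV cleavage site. Reaction started by mixing compound dilutions with reaction mix; activity read continuously over 5 h at 30 °C as loss of 340 nm absorbance from NADH consumption.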

[3] = biological target: c-KIT kinase (Homo sapiens, UniProt P10721); test: c-KIT kinase Assay; format: biochemical; parameters: cKIT residues T544-V976; GST (N); TEV cleavage site (internal); purchased deCODE Biostructures; settings: enzymatic assay, ATP 200 µM; read-out: KIT (wt) IC50
How it was run: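 This continuous spectrophotometric assay tracked c-KIT kinase turnover through NADH consumption at 340 nm, recorded for 2 hours at 30 °C. The enzyme construct from deCODE Biostructures carried an N-terminal tag, a GST-fusion sequence and a TEV cleavage site. Percent inhibition came from reaction rates over 0 to 1 h relative to a no-compound control, and IC50 values were derived with GraphPad Prism.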

[4] = biological target: T3, Phospho-KIT (Tyr719) (Homo sapiens, UniProt P10721, K642E); test: GIST882 KIT Western Blot; format: cell-based; settings: GIST882 cells, 4 hours, serum-free medium; read-out: pKIT suppression by western blot analysi GIST 882
T3 construct: endogenous in cells; host or cells: GIST882
How it was run: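 Phospho-KIT (Tyr719) was immunoblotted on PVDF and imaged in fluorescence mode after ECL Plus, with stripping and reprobing for total KIT. IC50 values were derived from the blot signals.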

[5] = biological target: T4, c-KIT D816H kinase (Homo sapiens, UniProt P10721, D816H); test: c-KIT D816H Kinase Assay; format: biochemical; settings: enzymatic assay, ATP 200 µM
T4 construct: The construct contains residues T544-V976 of cKit; GST (N); TEV cleavage site (internal); purchased deCODE Biostructures
How it was run: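 Mutant cKit enzyme, expressed as a GST-fusion construct carrying an N-terminal tag and TEV site, was mixed with serially diluted compound to start reactions. Activity tracked via NADH consumption, read continuously at 340 nm over 6 hours at 30 °C.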

[6] = tested on: Phospho-KIT (Tyr719); test: GIST430 KIT Western Blot; format: cell-based; settings: GIST430 cells, 4 hours, serum-free medium; read-out: pKIT suppression by western blot analysi GIST430
How it was run: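 GIST430 cells were compound-treated in serum-free Ham's F10, then lysed. Phospho-KIT (Tyr719) was measured by western blot with fluorescence-mode ECL, and blots were reprobed for total KIT; IC50 derived from concentration response.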

T4 sequence (P10721 544-976 D816H): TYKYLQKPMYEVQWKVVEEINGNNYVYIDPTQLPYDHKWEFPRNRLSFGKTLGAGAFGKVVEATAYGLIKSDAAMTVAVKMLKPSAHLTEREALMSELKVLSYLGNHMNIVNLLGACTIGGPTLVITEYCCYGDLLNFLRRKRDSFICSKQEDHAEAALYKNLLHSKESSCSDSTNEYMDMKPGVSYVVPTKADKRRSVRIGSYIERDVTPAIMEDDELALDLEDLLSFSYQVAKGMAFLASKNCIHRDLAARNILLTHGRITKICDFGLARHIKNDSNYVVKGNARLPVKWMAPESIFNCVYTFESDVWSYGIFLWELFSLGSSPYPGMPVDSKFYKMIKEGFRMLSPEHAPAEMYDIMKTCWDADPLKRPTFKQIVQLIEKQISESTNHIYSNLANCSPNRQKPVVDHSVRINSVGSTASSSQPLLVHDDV
c-KIT kinase, sequence (P10721 544-976): as the sequence (P10721 544-976 D816H) above, with H273D counted along it
T3 sequence (P10721 26-976 K642E): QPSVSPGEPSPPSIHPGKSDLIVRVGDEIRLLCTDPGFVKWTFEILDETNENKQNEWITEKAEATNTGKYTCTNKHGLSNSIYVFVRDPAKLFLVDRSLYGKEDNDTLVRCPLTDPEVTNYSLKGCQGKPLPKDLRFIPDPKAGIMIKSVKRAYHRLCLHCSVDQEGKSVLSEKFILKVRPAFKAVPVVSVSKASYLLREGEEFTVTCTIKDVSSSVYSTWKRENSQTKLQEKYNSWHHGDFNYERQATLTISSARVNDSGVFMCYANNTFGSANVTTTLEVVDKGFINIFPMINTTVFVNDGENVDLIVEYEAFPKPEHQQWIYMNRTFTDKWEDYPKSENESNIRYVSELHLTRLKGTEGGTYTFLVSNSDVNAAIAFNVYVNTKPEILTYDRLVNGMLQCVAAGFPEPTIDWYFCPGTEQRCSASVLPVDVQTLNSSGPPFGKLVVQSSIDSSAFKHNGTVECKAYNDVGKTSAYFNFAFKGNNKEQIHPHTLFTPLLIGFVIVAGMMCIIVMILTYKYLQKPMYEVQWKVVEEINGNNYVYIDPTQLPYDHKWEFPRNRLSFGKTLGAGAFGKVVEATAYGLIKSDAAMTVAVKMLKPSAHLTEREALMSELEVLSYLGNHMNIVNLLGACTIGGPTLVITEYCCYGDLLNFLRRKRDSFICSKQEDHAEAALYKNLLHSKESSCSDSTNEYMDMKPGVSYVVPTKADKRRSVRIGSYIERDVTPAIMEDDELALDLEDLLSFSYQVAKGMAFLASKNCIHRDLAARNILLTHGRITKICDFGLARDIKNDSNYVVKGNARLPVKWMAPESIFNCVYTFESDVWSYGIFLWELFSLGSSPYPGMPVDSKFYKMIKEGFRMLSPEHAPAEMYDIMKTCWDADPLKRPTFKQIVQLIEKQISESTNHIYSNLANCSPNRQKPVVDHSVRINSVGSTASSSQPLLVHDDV
T1 sequence (P10721 544-976 D816V): as the sequence (P10721 544-976 D816H) above, with H273V counted along it
T2 sequence (P10721 544-976 T670I): as the sequence (P10721 544-976 D816H) above, with T127I, H273D counted along it

Row | SMILES | IC50 [1] [nM] | IC50 [2] [nM] | IC50 [3] [nM] | IC50 [4] [nM] | IC50 [5] [nM] | IC50 [6] [nM]
1 | CCn1c(=O)c(-c2cc(NC(=O)Nc3cccc(F)c3)c(F)cc2Br)cc2cnc(NC)cc21 [Example 50, 1-(4-bromo-5-(1-ethyl-7-(methylamino)-2-oxo-1,2-dihydro-1,6-naphthyridin-3-yl)-2-fluorophenyl)-3-(3-fluorophenyl)urea] | 10 to 100 | 10 to 100 | < 10 | 10 to 100 | 10 to 100 | < 10
2 | CCn1c(=O)c(-c2cc(NC(=O)Nc3cc(F)cc(F)c3)c(F)cc2Cl)cc2cnc(NC)cc21 [Example 55, 1-(4-chloro-5-(1-ethyl-7-(methylamino)-2-oxo-1,2-dihydro-1,6-naphthyridin-3-yl)-2-fluorophenyl)-3-(3,5-difluorophenyl)urea] | 10 to 100 | 10 to 100 | 10 to 100 | 10 to 100 | < 10 | 10 to 100
3 | CCn1c(=O)c(-c2cc(NC(=O)Nc3cccc(F)c3)c(F)cc2C)cc2cnc(N)cc21 [Example 58, 1-(5-(7-amino-1-ethyl-2-oxo-1,2-dihydro-1,6-naphthyridin-3-yl)-2-fluoro-4-methylphenyl)-3-(3-fluorophenyl)urea] | 10 to 100 | 10 to 100 | < 10 | 100 to 1000 | < 10 | 10 to 100
4 | CCn1c(=O)c(-c2cc(NC(=O)Nc3csc4ccccc34)c(F)cc2C)cc2cnc(NC)cc21 [Example 59, 1-(benzo[b]thiophen-3-yl)-3-(5-(1-ethyl-7-(methylamino)-2-oxo-1,2-dihydro-1,6-naphthyridin-3-yl)-2-fluoro-4-methylphenyl)urea] | 10 to 100 | 10 to 100 | 10 to 100 | 10 to 100 | 10 to 100 | 10 to 100
5 | CCn1c(=O)c(-c2cc(NC(=O)Nc3cc(F)cc(F)c3)c(F)cc2Cl)cc2cnc(NC(C)=O)cc21 [Example 67, N-(3-(2-chloro-5-(3-(3,5-difluorophenyl)ureido)-4-fluorophenyl)-1-ethyl-2-oxo-1,2-dihydro-1,6-naphthyridin-7-yl)acetamide] | < 10 | < 10 | 10 to 100 | 10 to 100 | < 10 | < 10
6 | CNc1cc2c(cn1)cc(-c1cc(NC(=O)Nc3cccc(F)c3)c(F)cc1Cl)c(=O)n2C(C)C [Example 77, 1-(4-chloro-2-fluoro-5-(1-isopropyl-7-(methylamino)-2-oxo-1,2-dihydro-1,6-naphthyridin-3-yl)phenyl)-3-(3-fluorophenyl)urea] | < 10 | 100 to 1000 | < 10 | 10 to 100 | 10 to 100 | 10 to 100
7 | CCn1c(=O)c(-c2cc(NC(=O)Nc3ccc(F)c(CN4CCN(C)CC4)c3)c(F)cc2Cl)cc2cnc(NC)cc21 [Example 87, 1-(4-chloro-5-(1-ethyl-7-(methylamino)-2-oxo-1,2-dihydro-1,6-naphthyridin-3-yl)-2-fluorophenyl)-3-(4-fluoro-3-((4-methylpiperazin-1-yl)methyl)phenyl)urea] | 100 to 1000 | 10 to 100 | < 10 | 100 to 1000 | 10 to 100 | 100 to 1000

Next, values leading:

Row | IC50 [1] [nM] | IC50 [2] [nM] | IC50 [3] [nM] | IC50 [4] [nM] | IC50 [5] [nM] | IC50 [6] [nM] | SMILES
8 | < 10 | 10 to 100 | < 10 | 10 to 100 | < 10 | 10 to 100 | CCn1c(=O)c(-c2cc(NC(=O)Nc3ccccc3)c(F)cc2Cl)cc2cnc(NC(C)=O)cc21 [Example 54, 1-(5-(7-acetamido-1-ethyl-2-oxo-1,2-dihydro-1,6-naphthyridin-3-yl)-4-chloro-2-fluorophenyl)-3-phenylurea]
9 | 100 to 1000 | < 10 | < 10 | 100 to 1000 | 10 to 100 | 10 to 100 | CCn1c(=O)c(-c2cc(NC(=O)Nc3ccccc3)c(F)cc2Br)cc2cnc(N)cc21 [Example 57, 1-(5-(7-amino-1-ethyl-2-oxo-1,2-dihydro-1,6-naphthyridin-3-yl)-4-bromo-2-fluorophenyl)-3-phenylurea]
10 | < 10 | < 10 | < 10 | 10 to 100 | 10 to 100 | < 10 | CCn1c(=O)c(-c2cc(NC(=O)Nc3ccccc3)c(F)cc2Cl)cc2cnc(NC(=O)N(C)C)cc21 [Example 70, 3-(3-(2-chloro-4-fluoro-5-(3-phenylureido)phenyl)-1-ethyl-2-oxo-1,2-dihydro-1,6-naphthyridin-7-yl)-1,1-dimethylurea]
11 | < 10 | 10 to 100 | 10 to 100 | 10 to 100 | 10 to 100 | 10 to 100 | CCn1c(=O)c(-c2cc(NC(=O)Nc3ccccc3)c(F)cc2Cl)cc2cnc(NC(=O)OC)cc21 [Example 73, methyl (3-(2-chloro-4-fluoro-5-(3-phenylureido)phenyl)-1-ethyl-2-oxo-1,2-dihydro-1,6-naphthyridin-7-yl)carbamate]
12 | 10 to 100 | 10 to 100 | < 10 | 10 to 100 | < 10 | 10 to 100 | CCn1c(=O)c(-c2cc(NC(=O)Nc3ccccc3)c(F)cc2Cl)cc2cnc(NC(=O)N3CC(O)C3)cc21 [Example 81, N-(3-(2-chloro-4-fluoro-5-(3-phenylureido)phenyl)-1-ethyl-2-oxo-1,2-dihydro-1,6-naphthyridin-7-yl)-3-hydroxyazetidine-1-carboxamide]
13 | 10 to 100 | 10 to 100 | 10 to 100 | 100 to 1000 | 10 to 100 | 10 to 100 | CCn1c(=O)c(-c2cc(NC(=O)Nc3ccccc3)c(F)cc2C)cc2cnc(NC(=O)N(C)C)cc21 [Example 101, 3-(1-ethyl-3-(4-fluoro-2-methyl-5-(3-phenylureido)phenyl)-2-oxo-1,2-dihydro-1,6-naphthyridin-7-yl)-1,1-dimethylurea]

— patent publication EP3722296B1, “DIHYDRONAPHTHYRIDINES AND RELATED COMPOUNDS USEFUL AS KINASE INHIBITORS FOR THE TREATMENT OF PROLIFERATIVE DISEASES” (Deciphera Pharmaceuticals, LLC, priority 2012, dated 2013)
